Bridge positions count the residues as written; N and C are the ends. Square brackets hold non-standard residues; d marks the D form. Peptide text beside a SMILES is read from it. 1Nal = N[C@@H](Cc1cccc2ccccc12)C(=O)O; 2Nal = N[C@@H](Cc1ccc2ccccc2c1)C(=O)O; His(π-Me) = Cn1cncc1C[C@H](N)C(=O)O; NMeY = CN[C@@H](Cc1ccc(O)cc1)C(=O)O; NMeF = CN[C@@H](Cc1ccccc1)C(=O)O; Abu = CC[C@H](N)C(=O)O; Aib = CC(C)(N)C(=O)O
Tests used:
Format in all cases: cell-based
Conditions in all cases: LB broth, 5×10^5 CFU/ml, 37° C., 18 hours, scored by eye
E. coli 25922 = experiment: Minimum Inhibitory Concentration (MIC) determination, E. coli 25922; parameters: unit not given here
Protocol: (§1) MICs were determined by performing two-fold serial dilutions of peptides in LB broth to a final volume of 0.1 ml in round-bottom 96-well assay plates (Corning Life Sciences No 3788). Peptides were initially resuspended in 100% DMSO to 10 mM and subsequently diluted in LB medium to the appropriate concentration. Each well was inoculated with 5×10^5 CFU/ml of the screening stain and incubated at 37° C. without agitation for 18 hours. Plates were scored by eye, and the lowest compound concentration preventing visible growth was determined to be the MIC.

E. coli 25922 IMP = experiment: Minimum Inhibitory Concentration (MIC) determination, E. coli 25922 IMP
Protocol: as §1

E. coli BW25113 = experiment: Minimum Inhibitory Concentration (MIC) determination, E. coli BW25113; parameters: unit not given here
Protocol: as §1

Row | SMILES | MIC E. coli 25922 WUXI::MIC (E. coli 25922) | MIC E. coli 25922 IMP WUXI::MIC (E. coli 25922 IMP) | MIC E. coli BW25113 WUXI::MIC (E. coli BW25113)
1 | CC[C@@H]1NC(=O)[C@H](Cc2ccccc2)N(C)C(=O)CSC[C@@H](C(=O)NCC(N)=O)NC(=O)[C@H](Cc2cncn2C)NC(=O)[C@H](CCN)NC(=O)[C@H](Cc2c[nH]cn2)NC(=O)[C@H](Cc2ccc(O)cc2)N(C)C(=O)[C@H](CCCNC(=N)N)NC(=O)[C@H](CO)NC(=O)CNC(=O)[C@H](Cc2c[nH]cn2)NC(=O)[C@H](Cc2cccc3ccccc23)NC1=O (racemic) [Compound 49] | 50 |  | 
2 | CCC1NC(=O)C(Cc2c[nH]cn2)NC(=O)C(Cc2ccc(O)cc2)N(C)C(=O)C(CCCNC(=N)N)NC(=O)C(CO)NC(=O)CNC(=O)C(Cc2c[nH]cn2)NC(=O)C(Cc2cccc3ccccc23)NC(=O)C(CC)NC(=O)C(Cc2ccccc2)N(C)C(=O)CSCC(C(=O)NCC(N)=O)NC(=O)C(Cc2cncn2C)NC1=O (racemic) [Compound 44] | >100 |  | 
3 | CC[C@@H]1NC(=O)[C@H](Cc2ccccc2)N(C)C(=O)CSC[C@@H](C(=O)NCC(N)=O)NC(=O)[C@H](Cc2cncn2C)NC(=O)[C@H](CCCNC(=N)N)NC(=O)[C@H](Cc2c[nH]cn2)NC(=O)[C@H](Cc2ccc(O)cc2)N(C)C(=O)[C@H](CCCNC(=N)N)NC(=O)[C@H](CO)NC(=O)CNC(=O)[C@H](Cc2c[nH]cn2)NC(=O)[C@H](Cc2cccc3ccccc23)NC1=O [Compound 23] ({CH2CO}-[NMeF][Abu][1Nal]HGSR[NMeY]HR[His(π-Me)]CG-NH2; thioether N-12) | 25 | 0.016 | 
4 | CC[C@@H]1NC(=O)[C@H](Cc2ccccc2)NC(=O)CSC[C@@H](C(=O)NCC(N)=O)NC(=O)[C@H](Cc2cncn2C)NC(=O)[C@H](CCC(N)=O)NC(=O)[C@H](Cc2c[nH]cn2)NC(=O)[C@H](Cc2ccc(O)cc2)N(C)C(=O)[C@H](CCCNC(=N)N)NC(=O)[C@H](CO)NC(=O)CNC(=O)[C@H](Cc2c[nH]cn2)NC(=O)[C@H](Cc2cccc3ccccc23)NC1=O (racemic) [Compound 42] | 100 |  | 
5 | CC[C@@H]1NC(=O)[C@H](Cc2ccccc2)N(C)C(=O)CSC[C@@H](C(=O)NCC(N)=O)NC(=O)[C@H](Cc2cncn2C)NC(=O)[C@H](CN)NC(=O)[C@H](Cc2c[nH]cn2)NC(=O)[C@H](Cc2ccc(O)cc2)N(C)C(=O)[C@H](CCCNC(=N)N)NC(=O)[C@H](CO)NC(=O)CNC(=O)[C@H](Cc2c[nH]cn2)NC(=O)[C@H](Cc2cccc3ccccc23)NC1=O (racemic) [Compound 48] | >100 |  | 
6 | CC[C@@H]1NC(=O)[C@H](Cc2ccccc2)NC(=O)CSC[C@@H](C(=O)NCC(N)=O)NC(=O)[C@H](Cc2cncn2C)NC(=O)[C@H](CC)NC(=O)[C@H](Cc2c[nH]cn2)NC(=O)[C@H](Cc2ccc(O)cc2)N(C)C(=O)[C@H](CCCNC(=N)N)NC(=O)[C@H](CO)NC(=O)CNC(=O)[C@H](Cc2c[nH]cn2)NC(=O)[C@H](Cc2cccc3ccccc23)NC1=O (stereo in doubt) [Compound 41] | >100 |  | 
7 | CC[C@@H]1NC(=O)[C@H](Cc2ccccc2)NC(=O)CSC[C@@H](C(=O)NCC(N)=O)NC(=O)[C@H](Cc2cncn2C)NC(=O)[C@H](CCCNC(=N)N)NC(=O)[C@H](Cc2cnc[nH]2)NC(=O)[C@H](Cc2ccccc2)N(C)C(=O)[C@H](CCCNC(=N)N)NC(=O)[C@H](CO)NC(=O)CNC(=O)[C@H](Cc2c[nH]cn2)NC(=O)[C@H](Cc2c[nH]c3ccccc23)NC1=O [Compound 7, (3R,6S,9S,12S,15S,18S,21S,27S,30S, 33S,36S)-N-(2-amino-2-oxo-ethyl)-15,36-dibenzyl-33-ethyl-9,18-bis(3-guanidinopropyl)-21-(hydroxymethyl)-12,27-bis(1H-imidazol-4-ylmethyl)-30-(1H-indol-3-ylmethyl)-16-methyl-6-[(3-methylimidazol-4-yl)methyl]-5,8,11,14,17,20,23,26,29,32,35,38-dodecaoxo-1-thia-4,7,10,13,16,19,22,25,28,31,34,37-dodecazacyclononatriacontane-3-carboxamide] ({CH2CO}-F[Abu]WHGSR[NMeF]HR[His(π-Me)]CG-NH2; thioether N-12) |  | 0.0005 | 2
8 | CC[C@@H]1NC(=O)[C@H](Cc2ccccc2)NC(=O)CSC[C@@H](C(=O)NCC(N)=O)NC(=O)[C@H](Cc2cncn2C)NC(=O)[C@H](CCCNC(=N)N)NC(=O)[C@H](Cc2c[nH]cn2)NC(=O)[C@H](Cc2ccc(O)cc2)N(C)C(=O)[C@H](C)NC(=O)[C@H](CO)NC(=O)CNC(=O)[C@H](Cc2c[nH]cn2)NC(=O)[C@H](Cc2cccc3ccccc23)NC1=O [Compound 36] ({CH2CO}-F[Abu][1Nal]HGSA[NMeY]HR[His(π-Me)]CG-NH2; thioether N-12) | 100 | 100 | 
9 | CC[C@@H]1NC(=O)[C@H](Cc2ccccc2)NC(=O)CSC[C@@H](C(=O)NCC(N)=O)NC(=O)[C@H](Cc2cncn2C)NC(=O)[C@H](CCCNC(=N)N)NC(=O)[C@H](Cc2c[nH]cn2)NC(=O)[C@H](Cc2ccc(O)cc2)N(C)C(=O)[C@H](CCCNC(=N)N)NC(=O)[C@H](CO)NC(=O)CNC(=O)[C@H](Cc2c[nH]cn2)NC(=O)[C@H](Cc2ccc3ccccc3c2)NC1=O [Compound 25] ({CH2CO}-F[Abu][2Nal]HGSR[NMeY]HR[His(π-Me)]CG-NH2; thioether N-12) | 25 | 0.031 | 
10 | CC[C@@H]1NC(=O)[C@H](Cc2ccccc2)NC(=O)CSC[C@@H](C(=O)NCC(N)=O)NC(=O)[C@H](Cc2cncn2C)NC(=O)[C@H](CC)NC(=O)[C@H](Cc2c[nH]cn2)NC(=O)[C@H](Cc2ccccc2)N(C)C(=O)[C@H](CCCNC(=N)N)NC(=O)[C@H](CO)NC(=O)CNC(=O)[C@H](Cc2c[nH]cn2)NC(=O)[C@H](Cc2cccc3ccccc23)NC1=O [Compound 5, (3R,6S,9S,12S,15S,18S,21S,27S,30S, 33S,36S)-N-(2-amino-2-oxo-ethyl)-15,36-dibenzyl-9,33-diethyl-18-(3-guanidinopropyl)-21-(hydroxymethyl)-12,27-bis(1H-imidazol-4-ylmethyl)-16-methyl-6-[(3-methylimidazol-4-yl)methyl]-30-(1-naphthylmethyl)-5,8,11,14,17,20,23,26,29,32,35,38-dodecaoxo-1-thia-4,7,10,13,16,19,22,25,28,31,34,37-dodecazacyclononatriacontane-3-carboxamide] ({CH2CO}-F[Abu][1Nal]HGSR[NMeF]H[Abu][His(π-Me)]CG-NH2; thioether N-12) |  | 0.016 | >32
11 | CC[C@H](C)[C@@H]1NC(=O)C(C)(C)NC(=O)[C@H](Cc2cncn2C)NC(=O)[C@H](Cc2ccccc2)NC(=O)CSC[C@@H](C(=O)NCC(N)=O)NC(=O)[C@H](Cc2ccc(O)cc2)NC(=O)[C@H](Cc2c[nH]c3ccccc23)NC(=O)[C@H](Cc2ccc(O)cc2)NC(=O)[C@H](Cc2cncn2C)NC(=O)[C@H](Cc2ccccc2)NC(=O)C(C)(C)NC(=O)[C@H](CCCNC(=N)N)NC(=O)[C@H](CCCCN)NC(=O)[C@H](CCCNC(=N)N)NC1=O [Compound 56] ({CH2CO}-F[His(π-Me)][Aib]IRKR[Aib]F[His(π-Me)]YWYCG-NH2; thioether N-14) |  | 8 | >32
12 | CC[C@H](C)[C@@H]1NC(=O)[C@H]([C@@H](C)O)NC(=O)[C@H](Cc2cncn2C)NC(=O)[C@H](Cc2ccccc2)NC(=O)CSC[C@@H](C(=O)NCC(N)=O)NC(=O)[C@H](Cc2ccc(O)cc2)NC(=O)[C@H](Cc2c[nH]c3ccccc23)NC(=O)[C@H](Cc2ccc(O)cc2)NC(=O)[C@H](CCCNC(=N)N)NC(=O)[C@H](Cc2ccccc2)NC(=O)C(C)(C)NC(=O)[C@H](CCCNC(=N)N)NC(=O)[C@H](CCCCN)NC(=O)[C@H](CCCNC(=N)N)NC1=O [Compound 52] ({CH2CO}-F[His(π-Me)]TIRKR[Aib]FRYWYCG-NH2; thioether N-14) |  | 0.125 | 1
13 | CC[C@@H]1NC(=O)[C@H](Cc2ccccc2)NC(=O)CSC[C@@H](C(=O)NCC(N)=O)NC(=O)[C@H](Cc2cncn2C)NC(=O)[C@H](CN)NC(=O)[C@H](Cc2c[nH]cn2)NC(=O)[C@H](Cc2ccc(O)cc2)N(C)C(=O)[C@H](CCCNC(=N)N)NC(=O)[C@H](CO)NC(=O)CNC(=O)[C@H](Cc2c[nH]cn2)NC(=O)[C@H](Cc2cccc3ccccc23)NC1=O (racemic) [Compound 46] | 100 |  | 
14 | CC[C@@H]1NC(=O)[C@H](Cc2ccccc2)NC(=O)CSC[C@@H](C(=O)NCC(N)=O)NC(=O)[C@H](Cc2cncn2C)NC(=O)[C@H](CCCNC(=N)N)NC(=O)[C@H](Cc2cnc[nH]2)NC(=O)[C@H](Cc2ccccc2)N(C)C(=O)[C@H](CCCNC(=N)N)NC(=O)[C@H](CO)NC(=O)CN(C)C(=O)[C@H](Cc2cnc[nH]2)NC(=O)[C@H](Cc2c[nH]c3ccccc23)NC1=O (racemic) [Compound 11, rac-(3R,6S,9S,12S,15S,18S,21S,27S,30S, 33S,36S)-N-(2-amino-2-oxo-ethyl)-15,36-dibenzyl-33-ethyl-9,18-bis(3-guanidinopropyl)-21-(hydroxymethyl)-12,27-bis(1H-imidazol-5-ylmethyl)-30-(1H-indol-3-ylmethyl)-16,25-dimethyl-6-[(3-methylimidazol-4-yl)methyl]-5,8,11,14,17,20,23,26,29,32,35,38-dodecaoxo-1-thia-4,7,10,13,16,19,22,25,28,31,34,37-dodecazacyclononatriacontane-3-carboxamide] |  | 1.9074E−06 | 8
15 | CC[C@@H]1NC(=O)[C@H](Cc2ccccc2)N(C)C(=O)CSC[C@@H](C(=O)NCC(N)=O)NC(=O)[C@H](Cc2cncn2C)NC(=O)[C@H](CCC(N)=O)NC(=O)[C@H](Cc2c[nH]cn2)NC(=O)[C@H](Cc2ccc(O)cc2)N(C)C(=O)[C@H](CCCNC(=N)N)NC(=O)[C@H](CO)NC(=O)CNC(=O)[C@H](Cc2c[nH]cn2)NC(=O)[C@H](Cc2cccc3ccccc23)NC1=O (racemic) [Compound 45] | >100 |  | 

From US20240279283A1, “CYCLIC PEPTIDE ANTIBIOTICS” (priority 2021, published 2024)
